Reference: patent US20210255184A1, “Biosensor Device and Methods” (The New Zealand Institute for Plant and Food Research …, priority 2018, published 2021)
Read-outs that look alike come from different tables or passages of the source.

How the values were obtained:
Or35a = biological target: T1, Or35a (Drosophila melanogaster, UniProt Q9V3Q2); assay: EIS sensor, Or35a liposomes on gold electrode; type: biochemical; conditions: EIS dose response
T1 construct: his-tag; made in house; host or cells: baculovirus-infected Sf9 cells
T1 sequence (Q9V3Q2 1-409): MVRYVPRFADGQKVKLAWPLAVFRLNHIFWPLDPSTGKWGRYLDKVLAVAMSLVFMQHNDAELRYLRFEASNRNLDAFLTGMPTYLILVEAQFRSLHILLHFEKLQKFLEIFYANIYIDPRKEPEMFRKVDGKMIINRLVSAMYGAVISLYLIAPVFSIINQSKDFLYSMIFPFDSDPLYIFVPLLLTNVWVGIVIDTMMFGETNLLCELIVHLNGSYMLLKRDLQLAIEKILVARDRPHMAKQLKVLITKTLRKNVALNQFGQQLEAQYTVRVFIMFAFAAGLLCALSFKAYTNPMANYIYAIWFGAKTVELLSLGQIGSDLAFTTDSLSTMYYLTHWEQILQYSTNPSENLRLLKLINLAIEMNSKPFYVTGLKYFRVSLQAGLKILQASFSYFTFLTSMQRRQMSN
Procedure: PBS (pH=7.4) was used as an electrolyte to conduct electrochemical measurements. PBS buffer was degassed for about 30 minutes prior to electrochemical measurements. Odorant solutions of concentration ranging from 1 aM to 1 μM were prepared by sequential dilution in PBS solution containing 1% DMSO. OR immobilized electrodes were incubated in relevant odorant solution for ˜30 minutes each and washed gently with PBS before EIS measurements.
EIS measurements were done in a 3 electrode cell containing Ag/AgCl (3 M NaCl, 0.209 V vs. SHE) reference electrode, coiled platinum wire as a counter electrode and the gold disk as a working electrode at a fixed voltage of −0.7 using PalmSens potentiostat. Degassed PBS was used as an electrolyte.
EIS measurements were performed on gold electrodes functionalised with OrX liposomes (either Or10a or Or22a), OrX/Orco liposomes, or empty liposomes prior to and after target ligand or control ligand incubation with increasing concentrations (1 aM to 100 μM). Dose response curves were obtained by defining sensor response as −(ΔRp/R^op) versus log[C(Ligand)]. FIG. 4a presents the EIS response in terms of Nyquist plot for the Or10a liposome functionalized sensors when exposed to a solution containing one of the known target ligands of Or10a, methyl salicylate, at various concentrations. […] The dose response curve (FIG. 4b) was obtained by plotting the change in polarization resistance −(ΔRp/R^op) versus log[conc(Ligand)], as the sensor response. Here, Rp is the polarization resistance after Or10a liposome-target interaction and R^op is the polarization resistance before Or10a liposome-target interaction.
Prior to use, 1 mg liposomes (500 μl at 2 mg/ml) were defrosted on ice and then destabilized by incubating with 0.2% CHAPS for 15 min at room temperature. […] All Or35a/Orco integrated liposomes samples were analysed by Western blot before being aliquoted and stored at −80° C. Integration of Or35a/Orco into liposomes was assessed by density gradient ultracentrifugation (DGU) using Accudenz (Accurate Chemical & Scientific Corporation, USA). […]

DmOr22a/Orco = biological target: T2, DmOr22a/Orco (Drosophila melanogaster, UniProt P81909); conditions: * estimated visually from graph, cited from earlier work
T2 sequence (P81909 1-397): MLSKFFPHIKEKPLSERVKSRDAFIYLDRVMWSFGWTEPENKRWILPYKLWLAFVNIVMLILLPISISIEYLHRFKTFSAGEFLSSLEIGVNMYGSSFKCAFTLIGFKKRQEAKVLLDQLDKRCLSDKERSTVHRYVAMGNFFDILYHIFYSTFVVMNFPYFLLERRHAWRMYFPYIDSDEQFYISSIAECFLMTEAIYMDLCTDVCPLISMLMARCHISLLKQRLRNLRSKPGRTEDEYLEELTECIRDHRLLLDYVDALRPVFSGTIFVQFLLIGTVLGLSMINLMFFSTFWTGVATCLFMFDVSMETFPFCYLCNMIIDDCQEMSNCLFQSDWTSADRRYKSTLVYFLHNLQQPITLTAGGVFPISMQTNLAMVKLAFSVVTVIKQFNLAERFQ
T2 sequence (Q9VNB5 1-486 partner): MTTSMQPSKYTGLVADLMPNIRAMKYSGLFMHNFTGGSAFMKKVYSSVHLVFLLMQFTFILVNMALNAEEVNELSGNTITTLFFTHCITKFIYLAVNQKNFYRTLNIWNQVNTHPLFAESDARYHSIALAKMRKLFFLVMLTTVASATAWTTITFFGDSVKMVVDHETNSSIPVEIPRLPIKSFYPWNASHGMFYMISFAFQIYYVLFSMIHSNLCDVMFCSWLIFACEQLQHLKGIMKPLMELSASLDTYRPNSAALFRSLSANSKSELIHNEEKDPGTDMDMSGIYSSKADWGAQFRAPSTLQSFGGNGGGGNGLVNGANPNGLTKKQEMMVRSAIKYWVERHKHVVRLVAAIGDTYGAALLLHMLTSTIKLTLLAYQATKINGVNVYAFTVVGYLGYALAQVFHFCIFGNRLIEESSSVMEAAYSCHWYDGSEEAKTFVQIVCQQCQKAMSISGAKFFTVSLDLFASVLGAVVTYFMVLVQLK

| Compound | sensor response to control ligand (Or35a) | Sensitivity limit (given as Log) (DmOr22a/Orco; ref 43) | Sensitivity limit (given as Log) (DmOr22a/Orco; ref 44) |
| --- | --- | --- | --- |
| COC(=O)c1ccccc1O [methyl salicylate] | negligible response | – | – |
| CCCCCC(=O)OC [methyl hexanoate] | – | Log = −7.5* | Log = −7* |
